Each structure is given as a SMILES string. pIC50: −log10 of the molar value. A value given as a limit tells only on which side of the number the result lay.

The source of these data is patent publication US12624018B1, “Inhibitors of RIPK2 and medical uses thereof” (Odyssey Therapeutics, Inc., priority 2022, dated 2026).

The experiment concerns the target T1, RIPK2 enzyme (Homo sapiens, UniProt O43353).
T1 construct: purchased Carna 09-128
The experiment can be described thus: RIPK2 inhibition (ADP-Glo Kinase Assay). It is filed as biochemical. The conditions noted are these: RIPK2 5 nM, ATP 150 μM, MBP substrate, read-out: RIPK2 IC50. Put shortly: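 Human RIPK2 (5 nM) preincubated with compound 30 min at room temperature in 50 mM HEPES pH 7.5, 10 mM MgCl2, 2 mM DTT, 1 mM EGTA, 0.01% Brij-35, 0.05% BSA; native swine MBP as substrate. ADP formed quantified by ADP-Glo luminescence; percent inhibition relative to DMSO and no-enzyme controls.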

T1 sequence (O43353 1-299 limits assumed): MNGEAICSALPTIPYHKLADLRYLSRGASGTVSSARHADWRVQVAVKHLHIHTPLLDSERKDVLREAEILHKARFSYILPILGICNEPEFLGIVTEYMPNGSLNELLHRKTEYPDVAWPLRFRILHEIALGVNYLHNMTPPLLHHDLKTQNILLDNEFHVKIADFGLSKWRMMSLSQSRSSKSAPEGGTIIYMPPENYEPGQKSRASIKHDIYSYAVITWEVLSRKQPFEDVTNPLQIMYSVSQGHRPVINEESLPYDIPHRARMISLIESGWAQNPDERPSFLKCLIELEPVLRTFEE

In the case of `CC(C)(C)n1cc(NC(=O)Cc2ccc(Oc3ncnc4ccc(C(N)=O)cc34)cc2F)cn1` [Compound 24, 4-(4-(2-((1-(tert-butyl)-1H-pyrazol-4-yl)amino)-2-oxoethyl)-3-fluoro-phenoxy) quinazoline-6-carboxamide], the pIC50 is 8.13.
To `CNC(=O)c1ccc2ncnc(Oc3ccc(CC(=O)Nc4cnn(C(C)(C)C)c4)c(F)c3)c2c1` [Compound 25, 4-(4-(2-((1-(tert-butyl)-1H-pyrazol-4-yl)amino)-2-oxoethyl)-3-fluoro-phenoxy)-N-methyl-quinazoline-6-carboxamide] belongs 8.37; to `CN(C)C(=O)c1ccc2ncnc(Oc3ccc(CC(=O)Nc4cnn(C(C)(C)C)c4)c(F)c3)c2c1` [Compound 26, 4-(4-(2-((1-(tert-butyl)-1H-pyrazol-4-yl)amino)-2-oxoethyl)-3-fluorophenoxy)-N,N-dimethylquinazoline-6-carboxamide], 7.68; to `CC(C)(C)n1cc(NC(=O)Cc2ccc(Oc3ncnc4ccc(C(=O)N5CCCC5)cc34)cc2F)cn1` [Compound 27, N-(1-(tert-butyl)-1H-pyrazol-4-yl)-2-(2-fluoro-4-((6-(pyrrolidine-1-carbonyl)quinazolin-4-yl)oxy)phenyl) acetamide], 7.72.
Turning to `COc1ccc2ncnc(Oc3ccc(CC(=O)Nc4cc(C(C)(C)C)ccn4)c(F)c3)c2c1` [Compound 28, N-(4-(tert-butyl)pyridin-2-yl)-2-(2-fluoro-4-((6-methoxy-quinazolin-4-yl)oxy)phenyl) acetamide], the pIC50 was 7.90.
The value for `COc1ccc2ncnc(Oc3cnc(CC(=O)Nc4cc(C(C)(C)C)ccn4)c(F)c3)c2c1` [Compound 29, N-(4-(tert-butyl)pyridin-2-yl)-2-(3-fluoro-5-((6-methoxy-quinazolin-4-yl)oxy)pyridin-2-yl)acetamide] was 8.28; that for `COc1ccc2ncnc(Oc3ccc(CC(=O)Nc4cc(C(C)(C)C)cnn4)c(F)c3)c2c1` [Compound 30, N-(5-(tert-butyl)pyridazin-3-yl)-2-(2-fluoro-4-((6-methoxy-quinazolin-4-yl)oxy)phenyl) acetamide] was 8.14; that for `COc1ccc2ncnc(Oc3cnc(CC(=O)Nc4cc(C(C)(C)C)cnn4)c(F)c3)c2c1` [Compound 31, N-(5-(tert-butyl)pyridazin-3-yl)-2-(3-fluoro-5-((6-methoxy-quinazolin-4-yl)oxy)pyridin-2-yl)acetamide] was 7.70.
To `COc1ccc2ncnc(Oc3ccc(CC(=O)Nc4cc(C(C)(C)C)ncn4)c(F)c3)c2c1` [Compound 32, N-(6-(tert-butyl)pyrimidin-4-yl)-2-(2-fluoro-4-((6-methoxyquinazolin-4-yl)oxy)phenyl)acetamide] belongs 7.86; to `COc1ccc2ncnc(Oc3cnc(CC(=O)Nc4cc(C(C)(C)C)ncn4)c(F)c3)c2c1` [Compound 33, N-(6-(tert-butyl)pyrimidin-4-yl)-2-(3-fluoro-5-((6-methoxy-quinazolin-4-yl)oxy)pyridin-2-yl)acetamide], 7.07; to `COc1ccc2ncnc(Oc3ccc(CC(=O)Nc4cc(C5(C(F)(F)F)CC5)ccn4)c(F)c3)c2c1` [Compound 34, 2-(2-fluoro-4-((6-methoxyquinazolin-4-yl)oxy)phenyl)-N-(4-(1-(trifluoromethyl)cyclopropyl)pyridin-2-yl)acetamide], 7.48.
To `COc1ccc2ncnc(Oc3ccc(CC(=O)Nc4cc(C(C)(C)CO)ccn4)c(F)c3)c2c1` [Compound 35, 2-(2-fluoro-4-((6-methoxy-quinazolin-4-yl)oxy)phenyl)-N-(4-(1-hydroxy-2-methylpropan-2-yl)pyridin-2-yl)acetamide] belongs 7.53; to `CC(C)(C)n1cc(NC(=O)Cc2ccc(Oc3ccnc4ccc(P(C)(C)=O)cc34)cc2F)cn1` [Compound 36, N-(1-(tert-butyl)-1H-pyrazol-4-yl)-2-(4-((6-(dimethylphosphoryl)quinolin-4-yl)oxy)-2-fluorophenyl)acetamide], 8.33.
Turning to `COc1ccc2ncnc(Oc3ccc(CC(=O)Nc4cc(C(C)(C)C)n(C)n4)c(F)c3)c2c1` [Compound 37, N-(5-(tert-butyl)-1-methyl-1H-pyrazol-3-yl)-2-(2-fluoro-4-((6-methoxy-quinazolin-4-yl)oxy)phenyl) acetamide], the pIC50 was 8.11.
To `COc1cc2nccc(Oc3ccc(CC(=O)Nc4cnn(C(C)(C)C)c4)c(F)c3)c2cc1S(C)(=O)=O` [Compound 39, N-(1-(tert-butyl)-1H-pyrazol-4-yl)-2-(2-fluoro-4-((7-methoxy-6-(methylsulfonyl)quinolin-4-yl)oxy)phenyl)acetamide] belongs over 8.60; to `Cn1nc(NC(=O)Cc2ccc(Oc3ccnc4ccc(S(C)(=O)=O)cc34)cc2F)cc1C(C)(C)C` [Compound 40, N-(5-(tert-butyl)-1-methyl-1H-pyrazol-3-yl)-2-(2-fluoro-4-((6-(methylsulfonyl)quinolin-4-yl)oxy)phenyl)acetamide], over 8.60.
For `Cn1nc(NC(=O)Cc2ncc(Oc3ccnc4ccc(S(C)(=O)=O)cc34)cc2F)cc1C(C)(C)C` [Compound 41, N-(5-(tert-butyl)-1-methyl-1H-pyrazol-3-yl)-2-(3-fluoro-5-((6-(methylsulfonyl)quinolin-4-yl)oxy)pyridin-2-yl)acetamide], the negative-log IC50 (pIC50) was 8.12.
To `CC(C)(C)c1cc(NC(=O)Cc2ncc(Oc3ccnc4ccc(S(C)(=O)=O)cc34)cc2F)n[nH]1` [Compound 42, N-(5-(tert-butyl)-1H-pyrazol-3-yl)-2-(3-fluoro-5-((6-(methylsulfonyl)quinolin-4-yl)oxy)pyridin-2-yl)acetamide] belongs 8.26.
`C[S+]([O-])c1ccc2ncnc(Oc3ccc(CC(=O)Nc4cnn(C(C)(C)C)c4)c(F)c3)c2c1` (centres unmarked) [Compound 44, N-(1-(tert-butyl)-1H-pyrazol-4-yl)-2-(2-fluoro-4-((6-(methylsulfinyl)quinazolin-4-yl)oxy)phenyl)acetamide]: the negative-log IC50 (pIC50) was 7.58.
To `C[S+]([O-])c1ccc2nccc(Oc3ccc(CC(=O)Nc4cnn(C(C)(C)C)c4)c(F)c3)c2c1` (centres unmarked) [Compound 45, N-(1-(tert-butyl)-1H-pyrazol-4-yl)-2-(2-fluoro-4-((6-(methylsulfinyl)quinolin-4-yl)oxy)phenyl)acetamide] belongs over 8.60; to `CC(C)(C)n1cc(NC(=O)Cc2ccc(Oc3ccnc4ccc(S(N)(=O)=O)cc34)cc2F)cn1` [Compound 46, N-(1-(tert-butyl)-1H-pyrazol-4-yl)-2-(2-fluoro-4-((6-sulfamoylquinolin-4-yl)oxy)phenyl)acetamide], over 8.60.
To `COc1ccc2ncnc(Oc3ccc(CC(=O)Nc4cnn(C(C)(C)C)c4)c(F)c3F)c2c1` [Compound 47, N-(1-(tert-butyl)-1H-pyrazol-4-yl)-2-(2,3-difluoro-4-((6-methoxy-quinazolin-4-yl)oxy)phenyl) acetamide] belongs 8.41; to `CCOc1ccc2nccc(Oc3cnc(CC(=O)Nc4cnn(C(C)(C)C)c4)c(F)c3)c2c1` [Compound 48, N-(1-(tert-butyl)-1H-pyrazol-4-yl)-2-(5-((6-ethoxyquinolin-4-yl)oxy)-3-fluoropyridin-2-yl)acetamide], 8.04.
